Source: patent US20110283604A1, “BIODEGRADATION OF RENEWABLE HYDROCARBON FUEL BLENDS” (BUTAMAX(TM) ADVANCED BIOFUELS LLC, priority 2010, published 2011)

Experiments:
[1] = tested on: soil-groundwater slurries; assay: Aerobic microcosm biodegradation of BTEX, isobutanol and ethanol
Experimental: Soil and groundwater for laboratory microcosm testing were collected from within Site 60 at Vandenberg Air Force Base, CA. The site has a history of gasoline contamination, but has undergone an extensive cleanup program. Collected groundwater was containerized in sterile stainless steel soda kegs (18.5 L) under nitrogen headspace. […] The core samples in acetate sleeves were capped and sealed in the field to minimize exposure to air, shipped overnight on ice to the laboratory, and stored at 4° C.
Soil was removed from the acetate sleeves in an anaerobic chamber (Coy Laboratory Products, Inc., Grass Lake, Mich.) and the first 10 cm of the core ends that may have been exposed to oxygen were discarded. Collected soil consisted of silty sand with some gravel and larger stones. The soil was passed through a 0.95 cm sieve, homogenized, and then stored in amber glass jars with Teflon®-lined caps at 4° C. until microcosm setup was complete. (NA=Not Analyzed; * SVOC (semi volatile organic compound) detections include 0.008 mg L^−1 phenol and 0.003 mg L^−1 bis(2-ethylhexyl) phthalate; ** standard units).
Final transformation products were not determined. For comparison, one treatment was prepared using ethanol instead of isobutanol. […] Controls were amended with mercuric chloride and formaldehyde. BTEX and alcohol concentrations were selected to represent (approximately) potential groundwater concentrations that would be observed within a source area and in the near downgradient plume. The greater ethanol concentrations relative to the isobutanol concentrations used in this study were intended to reflect effective solubilities of isobutanol and ethanol in groundwater. […] The SET 1 treatments were prepared within 4 days of sample collection whereas SET 2 treatments were prepared after approximately 2 months of soil and groundwater storage.
Microcosms were prepared by placing 40 g of site soil into each of 54 glass serum bottles (approximate volume 160 mL each). BTEX and alcohol (isobutanol or ethanol) were added to the treatment bottles to attain the target concentrations shown in Tables 2A and B. Bottles were filled with groundwater so as to leave 10 mL of headspace. Controls were amended with mercuric chloride (700 mg/L in bottles) to inhibit microbial activity. Controls were subsequently amended with formaldehyde (1% v/v in bottles) after 4 days to limit microbial activity. Treatments were prepared with a minimum of 3 and up to 8 replicates each.
The prepared microcosms were incubated at 15° C. on a rotary shaker operating at 100 rpm. Headspace in each of the bottles was monitored for BTEX and oxygen. Aqueous BTEX concentrations were calculated by applying Henry's Law. Samples of the aqueous phase were analyzed for isobutanol and ethanol, as well as potential isobutanol degradation products (iso-butylaldehyde and iso-butyric acid). The headspace of each bottle was periodically flushed with oxygen gas to maintain aerobic conditions in the bottles. The headspace of each control bottle also was flushed with oxygen to evaluate potential losses of BTEX due to the flushing process.
Headspace gases were analyzed for BTEX by using a Varian CP-3900 gas chromatograph equipped with an FID and a Restek QSPLOT column (30 m length, 0.32 mm diameter) with an injector temperature of 260° C. and a detector temperature of 290° C. Headspace oxygen was analyzed by using a Varian CP-3800 gas chromatograph equipped with a Pulsed Discharge Helium Ionization Detector (PDHID) and both a CP-Molsiene 5A column and a CP-ParaBond Q column (both 10 m length, 0.32 mm diameter), an injector temperature of 210° C., and a detector temperature of 240° C. […] Aqueous alcohol concentrations (as well as iso-butylaldehyde and iso-butyric acid) were measured by first collecting a 130 μL subsample preserved with mercuric chloride.

[2] = Water tolerance and phase separation tests on isobutanol-ethanol-gasoline blends; format: physicochemical; conditions: E10 gasoline
Experimental: Scoping water tolerance and phase separation tests were conducted on isobutanol-ethanol-gasoline blends at 65° F. […] Concentrations in both the hydrocarbon and aqueous phase were determined by GC.

[3] = Treatment 1 (Low BTEX), aerobic, 15° C.
[4] = Treatment 2 (High BTEX), aerobic
[5] = Treatment 3 (Low BTEX + IBA 68 μM), aerobic
[6] = Treatment 4 (High BTEX + IBA 3,400 μM), SET 1, aerobic
[7] = Treatment 5 (High BTEX + IBA 3,400 μM), SET 2, aerobic
[8] = Treatment 6 (High BTEX + Ethanol 11,000 μM), aerobic
[9] = higher concentration treatments, aerobic (isobutanol: data of Treatments 4 and 5; ethanol treatment)

Row | Compound | Lag [1, 3] [days] | Lag [1, 4] [days] | Lag [1, 5] [days] | Lag [1, 6] [days] | Lag [1, 7] [days] | Lag [1, 8] [days] | observed first-order biodegradation rate constant [1, 9] [day⁻¹] | rate constant in lower concentration treatment relative to isobutanol or ethanol in higher concentration treatments ([1]; Treatment 3 vs higher concentration treatments, aerobic) | observed first-order biodegradation rate constant ([1]; lower concentration treatment (Treatment 3), aerobic) [day⁻¹] | effect of increased levels on aqueous phase volume during phase separation ([2]; 1.3% and 2.6% water, FIG. 11) | effect on amount of ethanol extracted into the aqueous phase ([2]; FIG. 12)
1 | c1ccccc1 [Benzene, benzene] | 0 | 6 | 0 | 1 | 1 | 1 | – | – | – | – | –
2 | CCc1ccccc1 [Ethylbenzene, ethylbenzene] | 2 | 5 | 1 | 0 | 1 | 1 | – | – | – | – | –
3 | Cc1ccccc1 [Toluene, toluene] | 0 | 5 | 0 | 5 | 1 | 1 | – | – | – | – | –
4 | CCO [ethanol, reference compound] | – | – | – | – | – | – | 0.074 ± 0.0023 | – | – | – | –
5 | CC(C)CO [isobutanol] | – | – | – | – | – | – | 0.081 ± 0.0044 | approximately 3.5 times | 0.28 ± 0.054 | reduced aqueous phase volume | acts as a co-solvent for ethanol
6 | total xylenes | 2 | 0 | 1 | 0 | 1 | 1 | – | – | – | – | –
